US8895504B2, “Amylin derivatives” (priority 2008, dated 2014)
*1 amine or outer side, *2 acyl side, *3 side chain or, on linkers, in order; H or OH if unused. Where a SMILES comes first, the peptide text is derived from it. Bridges are numbered along the chain shown (N, C = ends). The star is where a group is joined. C20 diacid = O=C(O)CCCCCCCCCCCCCCCCCCC(=O)*; C18 diacid = O=C(O)CCCCCCCCCCCCCCCCC(=O)*; γGlu = O=C(O)[C@H](CCC(=O)[*:2])N[*:1]

Tests used:
[1] = biological target: T1, Amylin 3(a) receptor (human calcitonin receptor (CTa) and RAMP-3) (Homo sapiens, UniProt O60896+P30988); test: Luciferase assay (III), BHK Amylin 3(a)//CRE-luc cells; assay type: cell-based; conditions: BHK cells with Amylin 3(a) receptor and CRE luciferase reporter, 4 hours incubation; read-out: Potency Luciferase
T1 construct: expressed in transfected cells; host or cells: BHK570 cells, stably transfected with a CRE-luciferase reporter
Procedure, shortened: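 Read-out is CRE-driven luciferase luminescence, taken 30 min after LucLite addition at room temperature. Compounds were incubated 4 h at 37° C in assay medium (10% FBS, 10 mM Hepes, pH 7,4). The cell line is BHK570 co-transfected with human calcitonin receptor CTa and RAMP-3, seeded overnight before use.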

[2] = Assay (V) PK - determination of T½ in mini-pig; assay type: in vivo; conditions: minipig, sc, terminal plasma half-life, subcutaneous, approx 2 nmol/kg, male Göttingen mini-pigs
Procedure, shortened: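 Male Göttingen mini-pigs (5–12 months, 7–35 kg) got a single s.c. neck injection of approx 2 nmol/kg; plasma sampled via central venous catheter predose to 240 h (some to 288 h). Amylin measured by sandwich ELISA; T½ = ln 2/λz from non-compartmental analysis of individual profiles.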

[3] = Assay (VI) PK - determination of T½ in rat; assay type: in vivo; conditions: sc, terminal plasma half-life, subcutaneous, approx 20 nmol/kg, male Sprague Dawley rats
Description: Assay (VI) PK—Determination OF T½ in Rat
T½ is the terminal half-life=ln 2/λz of a compound in plasma. λz is the first order rate constant associated with the terminal (log-linear) portion of the plasma concentration-time curve and is estimated by linear regression of time vs. log concentration.
T½ values of the amylin analogues of the invention is determined by pharmacokinetic studies in Sprague Dawley male rats, from Taconic Europe and the principles of laboratory animal care are followed.
An acclimatization period of approximately 7 days was allowed before the animals entered the study. At start of the acclimatization period the rats were in the weight range of 300-400 g. The rats had permanent catheters inserted in a. carotis which were used for blood sampling.
The studies were conducted in an animal room which was illuminated to give a cycle of approx 12 hours light and 12 hours darkness. The animals were housed individually due to the catheters and had food and water ad lib. The animals were weighed on the days of dosing.
In the present studies the test substances were administered subcutaneously in approx 20 nmol/kg dose. The animals received a single subcutaneous injection to the neck using a 25 G needle with syringe. Each test substance was given to typically three but in some cases two or four animals.
A full plasma concentration-time profile, employing 8-10 sampling points, was obtained from each animal. In example blood samples were collected according to the following schedule:
After subcutaneous administration:
Predose (0), 0.5, 1, 1.5, 2, 4, 6, 12, 24, 48 and 72 hours after injection. At each sampling time, 0.08 to 0.10 ml of blood was drawn from each animal. The blood samples were taken via the catheter.
The blood samples were collected into EDTA test tubes. Blood samples were kept on ice for max 20 min. before centrifugation. Plasma was separated using centrifugation (i.e. at 4° C., 10 min., 1500 G) and was immediately transferred to Micronic tubes or PCR plates. Approximately 40 μl plasma was transferred and was stored at −20° C. until assayed. The plasma samples were assayed for the content of amylin using an ELISA assay.
The plasma concentration-time profiles were analysed by a non-compartmental pharmacokinetic analysis (NCA) using WinNonlin Professional 5.0 (Pharsight Inc., Mountain View, Calif., USA). NCA was performed using the individual plasma concentration-time profiles from each animal. T½ is the terminal half-life=ln 2/λz and was determined from λz, the first order rate constant associated with the terminal (log-linear) portion of the curve, estimated by linear regression of time vs. log concentration.
ELISA Plasma Assay for Amylin Quantification
The human amylin ELISA is a monoclonal antibody-based sandwich immunoassay for determining amylin levels in human plasma. The capture antibody recognizes human amylin, amylin acid (deamidated amylin), a 1-20 fragment of amylin, but not reduced amylin. The detection antibody binds to reduced or unreduced human amylin but not amylin acid and is complexed with streptavidin-alkaline phosphatase. The substrate, 4-methylumbelliferyl phosphate, is applied to the completed sandwich and the fluorescent signal, monitored at 355 nm/460 nm, is proportional to the amount of amylin present in the sample.

T1 sequence (O60896 24-148): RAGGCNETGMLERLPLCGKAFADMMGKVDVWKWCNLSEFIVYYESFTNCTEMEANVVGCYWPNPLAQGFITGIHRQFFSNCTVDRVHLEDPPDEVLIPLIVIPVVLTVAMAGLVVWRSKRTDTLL
T1 sequence (P30988 25-474): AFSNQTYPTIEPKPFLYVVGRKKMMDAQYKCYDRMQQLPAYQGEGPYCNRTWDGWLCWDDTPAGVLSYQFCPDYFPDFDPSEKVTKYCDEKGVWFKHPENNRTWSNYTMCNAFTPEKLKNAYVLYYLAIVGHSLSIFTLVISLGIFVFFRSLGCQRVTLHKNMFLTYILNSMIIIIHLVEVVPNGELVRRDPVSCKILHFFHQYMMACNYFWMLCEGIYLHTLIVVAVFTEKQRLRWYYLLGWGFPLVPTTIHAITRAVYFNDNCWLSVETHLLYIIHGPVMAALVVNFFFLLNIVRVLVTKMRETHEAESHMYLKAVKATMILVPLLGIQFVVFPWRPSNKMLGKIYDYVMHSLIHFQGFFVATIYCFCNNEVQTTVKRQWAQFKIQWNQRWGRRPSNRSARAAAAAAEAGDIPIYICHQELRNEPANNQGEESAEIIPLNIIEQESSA

EC50 [1] [nM] | half-life [2] [h] | half-life [3] [h] | half-life ([2]; in vivo) [h] | half-life ([3]; in vivo) [h] | SMILES
0.1 | 34 | 13 |  |  | CC[C@H](C)[C@H](NC(=O)[C@@H]1CCCN1C(=O)CNC(=O)[C@H](Cc1ccccc1)NC(=O)[C@H](CC(N)=O)NC(=O)[C@H](CC(N)=O)NC(=O)[C@H](CO)NC(=O)[C@H](CO)NC(=O)[C@H](Cc1c[nH]cn1)NC(=O)[C@H](CCCNC(=N)N)NC(=O)[C@H](CC(C)C)NC(=O)[C@H](Cc1ccccc1)NC(=O)[C@H](CC(N)=O)NC(=O)[C@H](C)NC(=O)[C@H](CC(C)C)NC(=O)[C@H](CCCNC(=N)N)NC(=O)[C@H](CCC(N)=O)NC(=O)[C@@H](NC(=O)[C@H](C)NC(=O)[C@@H]1CSSC[C@H](NC(=O)[C@H](CCCCN)NC(=O)[C@H](CCCNC(=N)N)NC(=O)CC[C@H](NC(=O)CCCCCCCCCCCCCCCCCCC(=O)O)C(=O)O)C(=O)N[C@@H](CC(N)=O)C(=O)N[C@@H]([C@@H](C)O)C(=O)N[C@@H](C)C(=O)N[C@@H]([C@@H](C)O)C(=O)N1)[C@@H](C)O)C(=O)N[C@@H](CC(C)C)C(=O)N1CCC[C@H]1C(=O)N1CCC[C@H]1C(=O)N[C@H](C(=O)N[C@@H](CC(N)=O)C(=O)N[C@H](C(=O)NCC(=O)N[C@@H](CO)C(=O)N[C@@H](CC(N)=O)C(=O)N[C@H](C(=O)N[C@@H](Cc1ccc(O)cc1)C(N)=O)[C@@H](C)O)C(C)C)[C@@H](C)O [Example 22, N-alpha-[(S)-4-Carboxy-4-(19-carboxynonadecanoylamino)butyryl]-Arg-[Arg17]-pramlintide] ({C20 diacid-γGlu}-RKCNTATCATQRLANFLRHSSNNFGPILPPTNVGSNTY-NH2; disulfide 3-8)
0.1 |  |  | 70 | 16 | CC[C@H](C)[C@H](NC(=O)[C@@H]1CCCN1C(=O)CNC(=O)[C@H](Cc1ccccc1)NC(=O)[C@H](CC(N)=O)NC(=O)[C@H](CC(N)=O)NC(=O)[C@H](CO)NC(=O)[C@H](CO)NC(=O)[C@H](Cc1c[nH]cn1)NC(=O)[C@H](Cc1c[nH]cn1)NC(=O)[C@H](CC(C)C)NC(=O)[C@H](Cc1ccccc1)NC(=O)[C@H](CC(N)=O)NC(=O)[C@H](C)NC(=O)[C@H](CC(C)C)NC(=O)[C@H](CCCNC(=N)N)NC(=O)[C@H](CCC(N)=O)NC(=O)[C@@H](NC(=O)[C@H](C)NC(=O)[C@@H]1CSSC[C@H](NC(=O)[C@H](CCCCN)NC(=O)CC[C@H](NC(=O)CCCCCCCCCCCCCCCCCCC(=O)O)C(=O)O)C(=O)N[C@@H](CC(N)=O)C(=O)N[C@@H]([C@@H](C)O)C(=O)N[C@@H](C)C(=O)N[C@@H]([C@@H](C)O)C(=O)N1)[C@@H](C)O)C(=O)N[C@@H](CC(C)C)C(=O)N1CCC[C@H]1C(=O)N1CCC[C@H]1C(=O)N[C@H](C(=O)N[C@@H](CC(N)=O)C(=O)N[C@H](C(=O)NCC(=O)N[C@@H](CO)C(=O)N[C@@H](CC(N)=O)C(=O)N[C@H](C(=O)N[C@@H](Cc1ccc(O)cc1)C(N)=O)[C@@H](C)O)C(C)C)[C@@H](C)O [Example 5, N-alpha-[(S)-4-Carboxy-4-(19-carboxynonadecanoylamino)butyryl]-[His17]-pramlintide] ({C20 diacid-γGlu}-KCNTATCATQRLANFLHHSSNNFGPILPPTNVGSNTY-NH2; disulfide 2-7)
0.1 | 41 | 10 |  |  | CC[C@H](C)[C@H](NC(=O)[C@@H]1CCCN1C(=O)CNC(=O)[C@H](Cc1ccccc1)NC(=O)[C@H](CC(N)=O)NC(=O)[C@H](CC(N)=O)NC(=O)[C@H](CO)NC(=O)[C@H](CO)NC(=O)[C@H](Cc1c[nH]cn1)NC(=O)[C@H](CO)NC(=O)[C@H](CC(C)C)NC(=O)[C@H](Cc1ccccc1)NC(=O)[C@H](CC(N)=O)NC(=O)[C@H](C)NC(=O)[C@H](CC(C)C)NC(=O)[C@H](CCCNC(=N)N)NC(=O)[C@H](CCC(N)=O)NC(=O)[C@@H](NC(=O)[C@H](C)NC(=O)[C@@H]1CSSC[C@H](NC(=O)[C@H](CCCCN)NC(=O)[C@H](CCCNC(=N)N)NC(=O)CC[C@H](NC(=O)CCCCCCCCCCCCCCCCCCC(=O)O)C(=O)O)C(=O)N[C@@H](CC(N)=O)C(=O)N[C@@H]([C@@H](C)O)C(=O)N[C@@H](C)C(=O)N[C@@H]([C@@H](C)O)C(=O)N1)[C@@H](C)O)C(=O)N[C@@H](CC(C)C)C(=O)N1CCC[C@H]1C(=O)N1CCC[C@H]1C(=O)N[C@H](C(=O)N[C@@H](CC(N)=O)C(=O)N[C@H](C(=O)NCC(=O)N[C@@H](CO)C(=O)N[C@@H](CC(N)=O)C(=O)N[C@H](C(=O)N[C@@H](Cc1ccc(O)cc1)C(N)=O)[C@@H](C)O)C(C)C)[C@@H](C)O [Example 20, N-alpha-[(S)-4-Carboxy-4-(19-carboxynonadecanoylamino)butyryl]-Arg-[Ser17]-pramlintide] ({C20 diacid-γGlu}-RKCNTATCATQRLANFLSHSSNNFGPILPPTNVGSNTY-NH2; disulfide 3-8)
0.08 | 66 | 11 |  |  | CC[C@H](C)[C@H](NC(=O)[C@@H]1CCCN1C(=O)CNC(=O)[C@H](Cc1ccccc1)NC(=O)[C@H](CC(N)=O)NC(=O)[C@H](CC(N)=O)NC(=O)[C@H](CO)NC(=O)[C@H](CO)NC(=O)[C@H](Cc1c[nH]cn1)NC(=O)[C@H](Cc1c[nH]cn1)NC(=O)[C@H](CC(C)C)NC(=O)[C@H](Cc1ccccc1)NC(=O)[C@H](CC(N)=O)NC(=O)[C@H](C)NC(=O)[C@H](CC(C)C)NC(=O)[C@H](CCCNC(=N)N)NC(=O)[C@H](CCC(N)=O)NC(=O)[C@@H](NC(=O)[C@H](C)NC(=O)[C@@H]1CSSC[C@H](NC(=O)CC[C@H](NC(=O)CCCCCCCCCCCCCCCCC(=O)O)C(=O)O)C(=O)N[C@@H](CC(N)=O)C(=O)N[C@@H]([C@@H](C)O)C(=O)N[C@@H](C)C(=O)N[C@@H]([C@@H](C)O)C(=O)N1)[C@@H](C)O)C(=O)N[C@@H](CC(C)C)C(=O)N1CCC[C@H]1C(=O)N1CCC[C@H]1C(=O)N[C@H](C(=O)N[C@@H](CC(N)=O)C(=O)N[C@H](C(=O)NCC(=O)N[C@@H](CO)C(=O)N[C@@H](CC(N)=O)C(=O)N[C@H](C(=O)N[C@@H](Cc1ccc(O)cc1)C(N)=O)[C@@H](C)O)C(C)C)[C@@H](C)O [Example 10, N-alpha-[(S)-4-Carboxy-4-(17-carboxyheptadecanoylamino)butyryl]-[His17]-pramlintide (2-37)] ({C18 diacid-γGlu}-CNTATCATQRLANFLHHSSNNFGPILPPTNVGSNTY-NH2; disulfide 1-6)
